Source: ChEMBL document CHEMBL1240402 (2010)
Calls of active or inactive are those of the source. The calls are words filed in the database; no cut-off is given here.

How the values were obtained:
Format in all cases: functional
[1] = system: Clostridium perfringens; assay: Antimicrobial activity against Clostridium perfringens LFM1 assessed as resistance breakpoint by DIN-standardized microdilution method
[2] = system: Clostridium perfringens; assay: Antimicrobial activity against Clostridium perfringens LFM1 assessed as resistance breakpoint by DANMAP method
[3] = system: Clostridium perfringens; assay: Antimicrobial activity against Clostridium perfringens LFM1 assessed as resistant breakpoint by EUCAST method

CCC[C@@H]1C[C@@H](C(=O)N[C@@H]([C@H]2O[C@H](SC)[C@H](O)[C@@H](O)[C@H]2O)[C@H](C)Cl)N(C)C1
Activity [1]: inactive

CC[C@H]1OC(=O)[C@H](C)[C@@H](O[C@H]2C[C@@](C)(OC)[C@@H](O)[C@H](C)O2)[C@H](C)[C@@H](O[C@@H]2O[C@H](C)C[C@H](N(C)C)[C@H]2O)[C@](C)(O)C[C@@H](C)C(=O)[C@H](C)[C@@H](O)[C@]1(C)O
Activity [1]: inactive

O=C(N[C@H](CO)[C@H](O)c1ccc([N+](=O)[O-])cc1)C(Cl)Cl
Activity [2]: inactive

CS(=O)(=O)c1ccc([C@@H](O)[C@@H](CF)NC(=O)C(Cl)Cl)cc1 [FLORFENICOL]
Activity [2]: inactive

CC(=O)NC[C@H]1CN(c2ccc(N3CCOCC3)c(F)c2)C(=O)O1 [LINEZOLID]
Activity [2]: >4 mg/L | Activity [1]: >4 mg/L | Activity [3]: inactive | Activity ([3]; record 2): >4 mg/L
